The numbers were not newly measured in patent US20090291958A1, “Substituted PDE5 inhibitors” (Auspex Pharmaceuticals, Inc., priority 2006, published 2009), which cites them from elsewhere.

The test system of series [1] is PDE6. The note with it: share of patients; attributed to PDE6 modulation.
For series [2] the following is noted: in vivo.
In series [3] the test system is PDE5 versus PDE6. As to conditions: compared with sildenafil and vardenafil.
The conditions of series [4]: in vivo. This is another data set of the same source.

Usually half-life stands for the time in which the quantity being followed falls by half. As to `CN1CC(=O)N2[C@H](c3ccc4c(c3)OCO4)c3[nH]c4ccccc4c3C[C@@H]2C1=O` [tadalafil, Tadalafil], the “patients with side effects of chromatopsia, increased sensitivity to light, and blurred vision” value in series [1] was “less than 0.1%”. Moreover, the half-life in series [2] is 17.5 h. Also, the “selectivity for PDE5 versus PDE6” value in series [3] was “much more selective than sildenafil and vardenafil”. Also, in series [4], the exercise tolerance entry is “improve exercise tolerance” and the “rate of myocardial infarction” value was “lower rate of myocardial infarction than placebo”.
